# Experiments:
# Assay type in all cases: in vivo, human
# [1] = system: Smokers interested in stopping smoking; assay: Randomized placebo-controlled sildenafil smoking cessation trial with incentive-based programming; cessation determined by serum cotinine
# Method: (§1) Smokers interested in stopping smoking were imaged using a dual energy computerized tomography (DECT) protocol to determine baseline lung density and perfusion, then randomized to receive either 20 mg of sildenafil or placebo each day. Subjects were then followed each month for three months (i.e., 30, 60 and 90 days) to asses changes in lung density via DECT and alterations in the diffusing capacity of the lung for carbon monoxide (DLCO) (e.g., improved gas exchange) in conjunction with the determination of the level of smoking cessation by means of serum cotinine levels. As per standard protocol, the research team was blinded to treatment group until the subject had exited the trial and DECT image analysis was completed. Importantly, because serum cotinine levels were used to determine smoking cessation status, subjects were not allowed to use nicotine replacement therapy. However, in order to encourage the likelihood of smoking cessation, subjects were given incentive-based programming.
# In this paradigm, subjects are financially rewarded for smoking cessation (see, for example, Alford et al., 2010, PNAS USA, 107:7485-90; Iyer et al., 2016, Am. J. Resp. Crit. Care Med., 193:652-61).
# The results were analyzed from the first 48 subjects who enrolled in the study. Briefly, the subjects in the cohort were largely of European ancestry, and the cohort was evenly balanced between males and females, with subjects of both genders tending to be between 30 and 60 years of age. As evidenced by their pre-experiment serum cotinine levels, they also tended to be moderate to heavy smokers.
# In order to qualify for the financial incentive of $400, the subjects had to complete all 4 visits (intake and 3 follow-up visits at 30, 60 and 90 days) and had to quit smoking as evidenced by serum cotinine levels. In total, of the first 48 subjects enrolled in the study, 9 subjects completed just the intake, 7 subjects participated in both the intake and first visit, and 31 subjects completed all 4 visits in the study (Table 3). Data from one subject who dropped immediately from the study is not available.
# [2] = system: Smokers interested in stopping smoking; assay: Lung density (inflammation) by dual energy computerized tomography (DECT) in the sildenafil trial; details: 20 mg/day
# Method: as §1
# [3] = system: Smokers interested in stopping smoking; assay: Diffusing capacity of the lung for carbon monoxide (DLCO) in the sildenafil trial; details: 20 mg/day
# Method: as §1
# [4] = group who successfully stopped smoking for 90 days on sildenafil
# [5] = sildenafil without smoking cessation
smiles,measurement,setting,value
"CCCc1nn(C)c2c(=O)[nH]c(-c3cc(S(=O)(=O)N4CCN(C)CC4)ccc3OCC)nc12 [Sildenafil, sildenafil]",Cessation: <50% reduction of cotinine (number of subjects),"[1]; 20 mg sildenafil each day, N=24",3
same,Cessation: Visits with <2 ng/ml cotinine (number of visits),"[1]; 20 mg sildenafil each day, N=24, 30-, 60- and 90-day visits",36
same,Cessation: Quit at 90 days (number of subjects),"[1]; 20 mg sildenafil each day, N=24, by serum cotinine",12
same,Follow-up visits with negative serum cotinine values (<2 ng/ml),"[1]; 20 mg/day, 30-, 60- and 90-day visits, vs. placebo p<0.002, Exact Test",36 of 72
same,Females having achieved abstinence at 90 days (negative serum cotinine),"[1]; 20 mg/day, females",6
same,"Full or partial response of treatment (≥average 50% reduction of intake cotinine levels compared to average of 30-, 60- and 90-day visits) (subjects)","[1]; 20 mg/day, intention to treat, vs. placebo p<0.02 Exact Test",15 of 24
same,Complete cessation (subjects),"[1]; 20 mg/day, intention to treat, vs. placebo p<0.09, Exact Test",12 of 24
same,Males having achieved abstinence at 90 days (negative serum cotinine),"[1]; 20 mg/day, males",6
same,Change in lung density (inflammation),[2]; [4],significant loss of lung density
same,Change in lung density (inflammation),[2]; [5],no significant change
same,Change in DLCO,[3]; [4],improvement in DLCO
same,Change in DLCO,[3]; [5],no significant change

# Reference: US20230041334A1, “METHODS AND COMPOSITIONS FOR SMOKING CESSATION” (BEHAVIORAL DIAGNOSTICS, LLC, priority 2019, published 2023)
